Measurements from patent US20130071936A1, “FRET-BASED ZINC(II) ION INDICATOR” (The Florida State University Research Foundation, Inc., priority 2011, published 2013).
“And” between values parts separate entries of the source, which are not always exact repeats. Identical values can stand only once. Marks after values point to notes of the source that are not given here.

Key:
[1] = Fluorescence titration with ZnCl2 in aqueous/organic mixed solvent (1:9 MOPS buffer pH 7.2/CH3CN); format: binding; conditions: λex 400 nm
Procedure: FIG. 9 is a graph depicting emission spectra for the titration of zinc(II) ion indicator (4) (2.5 μM) with ZnCl2 (0-22 μM) in water-CH3CN (1:9) mixture (MOPES buffer, 10 mM, pH=7.2, λex=400 nm).
The titration experiments using zinc(II) ion indicator (4) were also carried out in an aqueous/organic mixed solvent (1:9 MOPS buffer (pH 7.2)/CH3CN). […] (FIG. 9). Comparing to the observations in CH3CN, the fluorescence is rather dim. The loss of fluorescence can be explained by the hydrogen bonding interaction between the protic solvent and the carbonyl groups on NDI, which provides a non-radiative deactivation pathway. See F. Würthner, S. Ahmed, C. Thalacker and T. Debaerdemaeker, Chem. Eur. J., 2002, 8, 4742. […] By extension, the fluorescence of zinc(II) ion indicators (4) and (5) would not be affected by the fluctuations of pH within the physiological range.

[2] = tested on: mitochondria of HeLa (S3) cells transfected with mCerulean3 TOMM-20; test: Colocalization by confocal fluorescence microscopy with mCerulean3 TOMM-20; format: cell-based
Procedure: FIGS. 13A through 13F are confocal fluorescence images of living HeLa (S3) cells transfected with mCerulean3 TOMM-20 that were incubated with zinc(II) ion indicator (5) (1.8 μM, A-C) and zinc(II) ion indicator (4) (6.0 μM, D-F) for 30 min. FIGS. 13A (zinc(II) ion indicator (5)) and 13D (zinc(II) ion indicator (4)) depict the green channel, λex 405 nm, λem 425-475 nm. FIGS. 13B (zinc(II) ion indicator (5)) and 13E (zinc(II) ion indicator (4)) depict the red channel, λex 543 nm, λem 580-680 nm. FIGS. 13C (zinc(II) ion indicator (5)) and 13F (zinc(II) ion indicator (4)) depict the merged image. Scale bar: 10 μm.
FIGS. 14A through 14F are confocal fluorescence images of live HeLa (S3) cells transfected with mCer3 TOMM20 that were incubated with FRET acceptor compound (3) (9.0 μM, A-C) and FRET acceptor compound (2) (52 μM, D-F) for 30 min. FIGS. 14A (FRET acceptor compound (3)) and 14D (FRET acceptor compound (2)) depict the green channel, λex 405 nm, λem 425-475 nm. FIGS. 14B (FRET acceptor compound (3)) and […] (FRET acceptor compound (2)) depict the red channel, λex 543 nm, λem 580-680 nm. FIGS. 14C (FRET acceptor compound (3)) and […] (FRET acceptor compound (2)) depict the merged image. Scale bar: 10 μm.
The colocalization properties of red-emitting compounds (2-5) were studied using HeLa (S3) cells transfected with mCerulean3 TOMM-20, a cyan fluorescent protein (CFP) fused with a mitochondrial targeting sequence whose emission is shown in the green channel. See FIG. 13A for emission spectrum from cells incubated with TPP-containing zinc(II) ion indicator (5), and see FIG. 13D for emission spectrum from cells incubated with zinc(II) ion indicator (4). […] The overall intracellular fluorescence intensity from zinc(II) ion indicator (4) is low, which is consistent with the observed weak fluorescence of the NDI fluorophore in aqueous solutions.
The localization properties of (2-5) were determined via costaining experiments using mCerulean3 TOMM-20, a mitochondrial-specific fusion of the cyan fluorescent protein (CFP) mCerulean3. mCerulean3 is a bright monomeric FP with an emission maximum of 475 nm. HeLa S3 cells were seeded onto Bioptechs Delta-T dishes 48 h prior to experimentation, then transfected about 24 h prior to loading the indicator using an Effectene Transfection Reagent Kit (Qiagen) and 1 μg of DNA. A 1:1 mixture of Dulbecco's modified Eagle's medium and Ham's F-12 (Invitrogen) supplemented with 12.5% fetal bovine serum was used as the culture medium. On the day of experimentation cells were rinsed twice with media and incubated with indicator 5 (1.8 μM) for 30 min. Prior to imaging cells were again rinsed twice with media, then provided with 1 mL of fresh media.
All cells were imaged using an Olympus Fluoview FV1000 confocal laser scanning microscope with an Olympus PLAPO 60× oil-immersion objective (NA=1.4). During experimentation cells were maintained at 37° C. and 5.0% CO2 using a Bioptechs Delta T4 Culture Dish Controller. Individual cells were imaged sequentially in two channels, using a 543 nm Helium-Neon laser line to excite the indicator and a 405 nm diode laser line to excite the FP. Cells were selected by the quality of FP expression, as the indicators tended to load homogenously into the cells. All data was collected using FluoView Software (Olympus). Laser power and detection settings were optimized for each image to fill LUTs. A pinhole size of 200 μm was used for each image. […]

[3] = Spectroscopic data (absorption, emission, fluorescence quantum yield) in CH3CN; format: physicochemical
Procedure: Reagents and solvents were purchased from various commercial sources and used without further purification unless otherwise stated. CH3CN (OmniSolv, EMD) were directly used in titration experiments without purification. All reactions were carried out in oven- or flame-dried glassware. Analytical thin-layer chromatography (TLC) was performed using pre-coated TLC plates with silica gel 60 F254 (EMD) or with aluminum oxide 60 F254 neutral (EMD). Flash column chromatography was performed using 40-63 μm (230-400 mesh ASTM) silica gel (EMD) or alumina (80-200 mesh, pH 9-10, EMD) as the stationary phases. Silica and alumina gel was flame-dried under vacuum to remove absorbed moisture before use. ^1H NMR spectra were recorded at 300 MHz on a Varian Mercury spectrometer. ^13C NMR spectra were recorded at 125 MHz, on a Bruker Avance spectrometer. All chemical shifts were reported in δ units relative to tetramethylsilane. High resolution mass spectra were obtained at the Mass Spectrometry Laboratory at Florida State University. ESI spectra were obtained on a JEOL AccuTOF spectrometer. Spectrophotometric and fluorometric titrations were conducted on a Varian Cary 100 Bio UV-Visible Spectrophotometer and a Varian Cary Eclipse Fluorescence Spectrophotometer, respectively, with a 1-cm standard quartz cell. The fluorescence quantum yield was determined by comparison of the integrated area of corrected emission spectrum with reference of N,N′-di-n-octyl-2,6-di-n-octylamino-1,4,5,8-naphthalenetetracarboxylic acid diimide (φf=0.53 in CH2Cl2) as the reference by the literature method. See Thalacker, C.; Röger, C.; Würthner, F. J. Org.

COCCCNc1cc2c3c(c(NCCOc4ccc(/C=C/c5ccc(-c6ccc(COCCOCCOC)cn6)nc5)cc4)cc4c3c1C(=O)N(CCCOC)C4=O)C(=O)N(CCCOC)C2=O [Compound (4)]
fluorescence enhancement on increasing [Zn^2+] [1]: 3 fold
intracellular appearance ([2]; 6.0 μM, 30 min): forms particulates intracellularly
colocalization with mitochondrial CFP (mCerulean3 TOMM-20) ([2]; 30 min incubation, (5) 1.8 μM, (4) 6.0 μM, (3) 9.0 μM, (2) 52 μM): poor colocalization with the CFP
overall intracellular fluorescence intensity ([2]; red channel λex 543 nm, λem 580-680 nm): low
λabs (A band) ([3]; complexes: Zn(ClO4)2 10 equiv.): 600 nm and 600 (A) nm
λabs (D band) ([3]; complexes: Zn(ClO4)2 10 equiv.): 346 nm and 346 (D) nm
λem ([3]; complexes: Zn(ClO4)2 10 equiv.): 633 nm
∈/10^3 (A band) ([3]; complexes: Zn(ClO4)2 10 equiv.): 22 10^3 M^-1 cm^-1
∈/10^3 (D band) ([3]; complexes: Zn(ClO4)2 10 equiv.): 76 10^3 M^-1 cm^-1
φf ([3]; λex = 565 nm): 0.41^c
